Measurements from patent US20100204129A1, “USE OF A PEPTIDE AS A THERAPEUTIC AGENT” (priority 2008, published 2010).
Non-standard residues stand in square brackets, D forms with d. Residues, ends and D or L forms follow the SMILES beside them.

What was measured:
A549 cells = experiment: Apoptosis prevention assay (C2 ceramide, Annexin-5); format: cell-based, human; settings: A549 cells pretreated 30 min with peptide 10 micrograms per ml, then C2 ceramide
Excerpt: Human A549 cells (carcinomic human alveolar basal epithelial cells) were utilized in the experiments employing the Annexin-5 apoptosis assay. Annexin-5 is a member of a highly conserved protein family that binds acidic phospholipids in a calcium-dependent manner. […] Phosphatidylserine is translocated from the inner side of the plasma membrane to the outer layer when cells undergo death by apoptosis or cell necrosis and serves as a signal by which cell destined for death are recognized by phagocytes. A549 cells were pretreated for 30 min with test peptide—10 micrograms per ml—followed by the exposure to C2 ceramide. Ceramide mediates cell apoptosis through the activation of the mitogen activating protein kinase (MAPK) and the stress activated kinase (JNK/SAPK). C2 ceramide is a synthetic, membrane soluble analog of ceramide.

HUVEC = experiment: Endothelial tube formation assay; format: cell-based, human; settings: peptide 10 micrograms per ml, 20 hours
Description: The endothelial tube formation assay is based on the ability of endothelial cells to form three-dimensional capillary-like tubular structures when cultured on a gel of basement membrane extract. The endothelial tube formation assay represents a powerful model for studying inhibition and induction of angiogenesis. Pre-labeled HUVEC with Calcein AM were seeded in a 96-well culture plate coated with extracellular metrix (Chemicon international Cat. ECM625) and treated with test peptide—10 micrograms per ml—in full growth medium. […] control was vehicle only. The endothelial cells were allowed to form tubes for 20 hours and were then examined under an inverted fluorescent microscope. Duplicate wells for each treatment were photographed and quantitatively analyzed for an average tubule length using image analysis software ImageProPlus. Raw data were expressed as average tubule lengths in pixels ±standard deviation. Statistic p values were computed using the Student's t-test.

HIV-1IIIB = experiment: HIV-1 antiviral assay (CPE reduction, MTS); format: cell-based; settings: peptide 10 micrograms per ml, 6 days post-infection
[1] = Cytotoxicity in HIV-1 assay (MTS cell viability); settings: human, CEM-SS cells (uninfected, cells plus peptide only)
RAW 264.7 cells = experiment: Phagocytosis assay (Fluorescein-labeled Escherichia coli, flow cytometry); format: cell-based, mouse; settings: peptide 10 micrograms per ml, 30 min preincubation, 60 min ingestion
Description: RAW 264.7 (Mouse leukaemic monocyte macrophage cell line) cells were obtained from ATCC and grown in RPMI 1640 medium containing 10% FBS. Cells were incubated in 12×75 mm tubes at 37° C. with test peptide—10 micrograms per ml—for 30 min prior to adding Fluorescein-labeled Escherichia coli bacteria as the agent to be ingested. After the cells were incubated for additional 60 min at 37° C. and allowed to ingest the Fluorescein-labeled Escherichia coli bacteria, cells were fixed with 1% paraformaldehyde. The samples were then analyzed by flow cytometry to determine the amount of phagocytosis as a function of brightness (the greater the phagocytic activity, the more fluorescence in the macrophage population). Data are reported as % positive and the mean fluorescence intensity (MFI) of positively stained cells.

[2] = test system: Human Peripheral Blood Mononuclear Cells (PBMC); experiment: B cell proliferation assay (SAC plus Interleukin-2, 3H-thymidine); format: cell-based; settings: peptide 10 micrograms per ml, 3H-thymidine incorporation
Description: Human Peripheral Blood Mononuclear Cells (PBMC) were obtained from normal human donors. The B cell proliferation was induced by stimulation of the cells with the B cell mitogen Staphylococcus aureus Cowans I (SAC) plus Interleukin-2, either in the absence (positive proliferation control), or in the presence of test peptide—10 micrograms per ml—to examine their effects on the B cell response. 10^5/well PBMC were plated in 96-well microtiter plates and assayed in duplicate with the peptide. Cell cultures were incubated at 37° C. for 3 days in a 5% CO2 incubator and were thereafter pulsed with 1 microCi/well ^3H-thymidine for additional 12 hours of culture. At the end of incubation time, the plates were harvested and the cells counted by liquid scintillation for the incorporation of ^3H-thymidine as a measure of B cell proliferation.

[3] = test system: hepatitis B virus (HBV) ayw strain; experiment: HBV assay, secreted HBV DNA by TaqMan PCR in HepG2-2.2.15; settings: peptide 10 micrograms per ml; six days; HBV DNA in supernatant
[4] = Cytotoxicity in HCMV assay (CellTiter 96 cell viability); settings: human, MRC-5 cells (embryonal lung fibroblasts)
Description: For cytotoxicity testing, MRC-5 cells were seeded at 2,500 cells/well in 96 well plates using growth medium. […] The following day, peptide was added and tested in duplicates. After a 6 days incubation period, cell viability was measured using CellTiter 96 Solution (Promega). Plates were incubated for additional 4 hours at 37° C. Adhesive plate sealers were used in place of lids, the sealed plates were inverted several times to mix the soluble formazan product and the plate was read spectrophotometrically at 490/560 nm with a Molecular Devices Vmax plate reader.

[5] = test system: Primary Human endothelial cells (HUVEC); experiment: Endothelial cell migration assay; format: cell-based; settings: peptide 10 micrograms per ml, 22 hours
Description: Endothelial cell migration is a prerequisite for the process of neo-vascularization or angiogenesis which is crucial for on-site recruitment of blood vessel formation. Primary Human endothelial cells (HUVEC) were seeded in insert chambers with 3 micrometer pore size of multi-transwell plate for 6 hours at 37° C. in Endothelial Cell Basal Medium (EBM) supplemented with 0.1% bovine serum albumin. Thereafter, designated concentration of test peptide—10 micrograms per ml—was added in duplicate wells. The endothelia were allowed to migrate for 22 hours at 37° C., then, migrated cells were fixed and stained with Hoechst 33342 dye. Images of 3 fields per insert were taken and the number of migrated cells per field were quantified using the ImageProPlus software. Data were analyzed for the average number of the migrated cells and standard deviation of six data points for each treatment condition. Active test peptide against HUVEC migration was determined based on 50% inhibition of migrated cells as compared with the control. Statistic p values were computed using the Student's t-test.

CC(C)C[C@H](NC(=O)[C@H](CC(C)C)NC(=O)[C@@H](Cc1c[nH]c2ccccc12)NC(=O)[C@H](Cc1ccccc1)NC(=O)[C@@H](Cc1c[nH]c2ccccc12)NC(=O)[C@H](CCC(N)=O)NC(=O)[C@H](CCC(N)=O)NC(=O)[C@@H]1CCCN1C(=O)[C@H](CCCCN)NC(=O)[C@@H]1CCCN1C(=O)[C@@H](CCCNC(=N)N)NC(=O)[C@@H]1CCCN1C(=O)CNC(=O)[C@H](CC(C)C)NC(=O)[C@H](CC(C)C)NC(=O)[C@H](Cc1ccc(O)cc1)NC(=O)CNC(=O)[C@H](C)NC(=O)[C@H](CO)NC(=O)[C@H](CC(N)=O)NC(=O)[C@H](CC(C)C)NC(=O)[C@@H](NC(=O)[C@H](Cc1c[nH]c2ccccc12)NC(=O)CN)[C@@H](C)O)C(N)=O [Spantide-I, Gly-Trp-Thr-Leu-Asn-Ser-Ala-Gly-Tyr-Leu-Leu-Gly-Pro-D-Arg-Pro-Lys-Pro-Gln-Gln-D-Trp-Phe-D-Trp-Leu-Leu-NH2] (H-GWTLNSAGYLLGP[dR]PKPQQ[dW]F[dW]LL-NH2)
% prevention of ceramide induced apoptosis (A549 cells): −20.5% | % inhibition of tube formation (HUVEC): 1% | % CPE reduction in HIV-1 infected CEM-SS cells (HIV-1IIIB): 0.0% | viability at 10 micrograms per ml [1]: 100% | % of control phagocytosis (RAW 264.7 cells): 102.9% | % of SAC/IL2 induced control [2]: 106.6% | % inhibition of HBV replication in HEP G2 cells [3]: 14.1% | viability at 144 h [4]: 100% | % inhibition of migration [5]: −25%
